Molecular target: T1, cardiac voltage-gated sodium channel (NaV1.5) (Homo sapiens, UniProt Q14524)
T1 construct: gene SCN5A; human NaV1.5 channels stably expressed in HEK-293 cells, without β-subunits
Assay: whole-cell patch clamp, peak NaV1.[…] current at −[…] mV, HEK-293 cells
Format: cell-based

T1 sequence (Q14524 whole entry): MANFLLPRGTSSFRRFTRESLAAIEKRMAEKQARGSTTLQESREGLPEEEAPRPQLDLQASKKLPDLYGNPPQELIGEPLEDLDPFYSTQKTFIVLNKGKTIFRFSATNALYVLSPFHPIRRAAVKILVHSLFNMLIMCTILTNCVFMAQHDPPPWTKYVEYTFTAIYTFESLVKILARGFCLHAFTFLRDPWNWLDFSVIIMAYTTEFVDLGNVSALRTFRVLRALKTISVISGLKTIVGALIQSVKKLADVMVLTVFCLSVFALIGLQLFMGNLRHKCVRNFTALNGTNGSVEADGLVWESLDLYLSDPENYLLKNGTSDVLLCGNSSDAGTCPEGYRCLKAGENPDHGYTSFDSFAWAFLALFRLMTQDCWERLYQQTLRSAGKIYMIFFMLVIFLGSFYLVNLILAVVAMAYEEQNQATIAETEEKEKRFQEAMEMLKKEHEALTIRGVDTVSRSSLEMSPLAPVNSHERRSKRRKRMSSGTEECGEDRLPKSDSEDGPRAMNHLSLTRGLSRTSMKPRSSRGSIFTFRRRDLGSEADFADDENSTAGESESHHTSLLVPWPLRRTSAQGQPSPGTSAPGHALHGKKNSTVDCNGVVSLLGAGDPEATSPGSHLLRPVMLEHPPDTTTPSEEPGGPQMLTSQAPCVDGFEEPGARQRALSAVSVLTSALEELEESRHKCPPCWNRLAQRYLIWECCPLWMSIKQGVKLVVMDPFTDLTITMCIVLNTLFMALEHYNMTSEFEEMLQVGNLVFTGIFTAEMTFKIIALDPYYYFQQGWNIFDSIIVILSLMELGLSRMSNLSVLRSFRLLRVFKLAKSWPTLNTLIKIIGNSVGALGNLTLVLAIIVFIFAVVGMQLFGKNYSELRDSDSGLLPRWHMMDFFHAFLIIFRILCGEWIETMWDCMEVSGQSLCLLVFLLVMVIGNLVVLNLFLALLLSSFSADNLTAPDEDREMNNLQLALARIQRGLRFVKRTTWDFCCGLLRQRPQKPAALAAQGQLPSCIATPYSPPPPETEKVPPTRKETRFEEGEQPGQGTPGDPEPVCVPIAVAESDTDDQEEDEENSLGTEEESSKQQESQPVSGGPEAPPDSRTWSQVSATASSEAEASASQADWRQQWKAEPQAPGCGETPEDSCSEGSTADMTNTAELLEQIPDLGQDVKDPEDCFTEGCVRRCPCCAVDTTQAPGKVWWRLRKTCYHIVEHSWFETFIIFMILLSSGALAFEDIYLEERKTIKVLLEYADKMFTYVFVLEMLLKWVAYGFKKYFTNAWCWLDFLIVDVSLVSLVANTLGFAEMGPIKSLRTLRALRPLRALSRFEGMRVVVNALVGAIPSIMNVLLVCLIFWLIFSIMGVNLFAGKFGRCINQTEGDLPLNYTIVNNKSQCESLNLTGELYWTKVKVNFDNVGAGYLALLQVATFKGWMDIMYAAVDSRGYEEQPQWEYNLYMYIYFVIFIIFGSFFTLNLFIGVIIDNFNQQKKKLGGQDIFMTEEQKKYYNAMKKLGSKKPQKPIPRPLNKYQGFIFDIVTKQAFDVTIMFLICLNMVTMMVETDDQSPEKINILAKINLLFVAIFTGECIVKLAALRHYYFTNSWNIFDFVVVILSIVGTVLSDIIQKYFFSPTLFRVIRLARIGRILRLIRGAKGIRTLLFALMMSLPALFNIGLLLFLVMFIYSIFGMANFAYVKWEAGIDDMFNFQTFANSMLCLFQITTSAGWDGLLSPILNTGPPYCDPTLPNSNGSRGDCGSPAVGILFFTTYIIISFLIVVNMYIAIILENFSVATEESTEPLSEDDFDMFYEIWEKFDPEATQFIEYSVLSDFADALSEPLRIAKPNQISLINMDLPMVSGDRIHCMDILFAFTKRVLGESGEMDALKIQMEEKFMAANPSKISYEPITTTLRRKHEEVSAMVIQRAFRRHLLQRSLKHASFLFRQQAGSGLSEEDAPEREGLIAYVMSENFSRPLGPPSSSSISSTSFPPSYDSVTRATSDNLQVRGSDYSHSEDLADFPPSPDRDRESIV

Fc1ccc([C@@H]2CCNC[C@H]2COc2ccc3c(c2)OCO3)cc1 [paroxetine]
IC50: 6.8 ± 1.1 µM

— article PMC9915920, “The Antidepressant Paroxetine Reduces the Cardiac Sodium Current” (International Journal of Molecular Sciences, 2023)
